According to patent US6441195B1, “Substituted sulphonylamino(thio) carbonyl compounds” (Bayer Aktiengesellschaft, priority 1995, dated 2002):

Legend:
Type in all cases: in vivo
weeds = assay: Pre-emergence test (greenhouse), activity against weeds; settings: in words
Procedure: Solvent: 5 parts by weight of acetone
Emulsifier: 1 part by weight of alkylaryl polyglycol ether
(§1) To produce a suitable preparation of the active compound, 1 part by weight of active compound is mixed with the stated amount of solvent, the stated amount of emulsifier is added and the concentrate is diluted with water to the desired concentration.
(§2) Seeds of the test plants are sown in normal soil. After about 24 hours, the soil is watered with the preparation of active compound. Advantageously, the amount of water per unit area is kept constant. The active compound concentration in the preparation is not important, only the active compound appliation rate per unit area matters.
(§3) After three weeks, the degree of damage to the plants is rated in % damage in comparison to the development of the untreated control.
(§4) 0%=no action (like untreated control)

Maize = assay: Pre-emergence test/Greenhouse, Maize
Procedure: as §1, §2, §3, §4

Lolium = assay: Pre-emergence test/Greenhouse, Lolium; settings: after three weeks
Procedure: as §1, §2, §3, §4

Poa = assay: Pre-emergence test/Greenhouse, Poa; settings: after three weeks
Procedure: as §1, §2, §3, §4

Sorghum = assay: Pre-emergence test/Greenhouse, Sorghum; settings: after three weeks
Procedure: as §1, §2, §3, §4

Ambrosia = assay: Pre-emergence test/Greenhouse, Ambrosia; settings: after three weeks
Procedure: as §1, §2, §3, §4

Matricaria = assay: Pre-emergence test/Greenhouse, Matricaria; settings: after three weeks
Procedure: as §1, §2, §3, §4

Solanum = assay: Pre-emergence test/Greenhouse, Solanum; settings: after three weeks
Procedure: as §1, §2, §3, §4

Soya beans = assay: Pre-emergence test/Greenhouse, Soya beans
Procedure: as §1, §2, §3, §4

[1] = pre-emergence, 60 g of ai./ha, after three weeks

| SMILES | activity against weeds (weeds) | degree of damage to the plants (% damage vs untreated control), Maize (Maize; in vivo) [%] | degree of damage to the plants (% damage vs untreated control), Lolium (Lolium; 125 g of ai./ha) [%] | degree of damage to the plants (% damage vs untreated control), Poa (Poa; 125 g of ai./ha) [%] | degree of damage to the plants (% damage vs untreated control), Ambrosia (Ambrosia; 125 g of ai./ha) [%] | degree of damage to the plants (% damage vs untreated control), Matricaria (Matricaria; 125 g of ai./ha) [%] | degree of damage to the plants (% damage vs untreated control), Solanum (Solanum; 125 g of ai./ha) [%] | degree of damage to the plants (% damage vs untreated control), Soya beans (Soya beans; in vivo) [%] | degree of damage to the plants (% damage vs untreated control), Lolium (Lolium; 60 g of ai./ha) [%] | degree of damage to the plants (% damage vs untreated control), Poa (Poa; 60 g of ai./ha) [%] | degree of damage to the plants (% damage vs untreated control), Ambrosia (Ambrosia; 60 g of ai./ha) [%] | degree of damage to the plants (% damage vs untreated control), Matricaria (Matricaria; 60 g of ai./ha) [%] | degree of damage to the plants (% damage vs untreated control), Solanum (Solanum; 60 g of ai./ha) [%] | also measured |
| --- | --- | --- | --- | --- | --- | --- | --- | --- | --- | --- | --- | --- | --- | --- |
| CCOC(=O)c1scc(C)c1S(=O)(=O)NC(=O)n1nc(SC)n(C)c1=O [Example 55] | very strong activity against weeds | 10 | 100 | 90 | 100 | 100 | 100 | – | – | – | – | – | – | degree of damage to the plants (% damage vs untreated control), Sorghum (Sorghum; 125 g of ai./ha): 60% |
| CCn1c(OC)nn(C(=O)NS(=O)(=O)c2c(C)cccc2C(=O)OC(C)C)c1=O [Example 19] | very strong activity against weeds | 0 | – | – | – | – | – | 0 | 95 | 95 | 95 | 95 | 90 | – |
| COC(=O)c1scc(C)c1S(=O)(=O)NC(=O)c1noc(C)n1 [Example 13] | very strong activity against weeds | 30 | 90 | 80 | 95 | 95 | 90 | – | – | – | – | – | – | degree of damage to the plants (% damage vs untreated control), Sorghum (Sorghum; 125 g of ai./ha): 70% |
| CCOc1nn(C(=O)NS(=O)(=O)c2c(C)cccc2C(=O)OC(C)C)c(=O)n1C1CC1 [Example 46] | very strong activity against weeds | 0 | – | – | – | – | – | – | – | – | – | – | – | degree of damage to the plants (% damage vs untreated control), Lolium (Lolium; 8 g of ai./ha): 80%; degree of damage to the plants (% damage vs untreated control), Poa (Poa; 8 g of ai./ha): 95%; degree of damage to the plants (% damage vs untreated control), Sorghum (Sorghum; 8 g of ai./ha): 80%; degree of damage to the plants (% damage vs untreated control), Ambrosia (Ambrosia; 8 g of ai./ha): 95%; degree of damage to the plants (% damage vs untreated control), Matricaria (Matricaria; 8 g of ai./ha): 95%; degree of damage to the plants (% damage vs untreated control), Solanum (Solanum; 8 g of ai./ha): 95% |
| CCOn1c(SCC)nn(C(=O)NS(=O)(=O)c2c(C)cccc2C(=O)OC)c1=O [Example 3, 4-ethoxy-5-ethylthio-2-(2-methyl-6-methoxy-carbonyl-phenylsulphonylaminocarbonyl)-2,4-dihydro-3H-1,2,4-triazol-3-one] | very strong activity against weeds | – | – | – | – | – | – | – | 90 | 70 | 80 | 95 | 80 | degree of damage to the plants (% damage vs untreated control), Maize (Maize; [1]): 10%; degree of damage to the plants (% damage vs untreated control), Soya beans (Soya beans; [1]): 20% |
| CCCc1nn(C(=O)NS(=O)(=O)c2c(C)csc2C(=O)OC)c(=O)n1C [Example 35] | very strong activity against weeds | 0 | – | – | – | – | – | – | 95 | 95 | 95 | 100 | 95 | degree of damage to the plants (% damage vs untreated control), Sorghum (Sorghum; 60 g of ai./ha): 95% |
| CCOn1c(SC)nn(C(=O)NS(=O)(=O)c2c(C)cccc2C(=O)OC)c1=O [Example 146] | very strong activity against weeds | 0 | – | – | – | – | – | 10 | 80 | 90 | 80 | 80 | 90 | – |
| CCOC(=O)c1scc(C)c1S(=O)(=O)NC(=O)n1nc(OCC)n(CC)c1=O [Example 64] | very strong activity against weeds | 10 | – | – | – | – | – | 30 | 90 | 60 | 100 | 100 | 100 | – |
| CCn1c(OC)nn(C(=O)NS(=O)(=O)c2c(C)csc2C(=O)OC)c1=O [Example 37] | very strong activity against weeds | 10 | – | – | – | – | – | 10 | 90 | 70 | 80 | 95 | 90 | – |
| COC(=O)c1cccc(C)c1S(=O)(=O)NC(=O)n1nc(OCC(F)(F)F)n(C2CC2)c1=O [Example 142] | very strong activity against weeds | 20 | – | – | – | – | – | 10 | – | – | – | – | – | degree of damage to the plants (% damage vs untreated control), Lolium (Lolium; 15 g of ai./ha): 95%; degree of damage to the plants (% damage vs untreated control), Poa (Poa; 15 g of ai./ha): 80%; degree of damage to the plants (% damage vs untreated control), Ambrosia (Ambrosia; 15 g of ai./ha): 80%; degree of damage to the plants (% damage vs untreated control), Matricaria (Matricaria; 15 g of ai./ha): 80%; degree of damage to the plants (% damage vs untreated control), Solanum (Solanum; 15 g of ai./ha): 80% |
| CCCOC(=O)c1cccc(C)c1S(=O)(=O)NC(=O)n1nc(OCC)n(CC)c1=O [Example 45] | very strong activity against weeds | 10 | 90 | 95 | 95 | 90 | 95 | 20 | – | – | – | – | – | – |
| C#CCSc1nn(C(=O)NS(=O)(=O)c2c(C)cccc2C(=O)OC)c(=O)n1C [Example 161] | very strong activity against weeds | 0 | – | – | – | – | – | 20 | 95 | 95 | 95 | 95 | 95 | – |
| CCOC(=O)c1scc(C)c1S(=O)(=O)NC(=O)n1nc(SCC)n(C)c1=O [Example 56] | very strong activity against weeds | – | 60 | 80 | – | 100 | 95 | 0 | – | – | – | – | – | – |
| COC(=O)c1cccc(C)c1S(=O)(=O)NC(=O)c1noc(C)n1 [Example 9] | very strong activity against weeds | 0 | 80 | 80 | 95 | 90 | 95 | – | – | – | – | – | – | degree of damage to the plants (% damage vs untreated control), Sorghum (Sorghum; 125 g of ai./ha): 60% |
| CCOc1nn(C(=O)NS(=O)(=O)c2c(C)csc2C(=O)OC)c(=O)n1CC [Example 41] | very strong activity against weeds | 0 | – | – | – | – | – | – | 60 | 80 | 95 | 95 | 90 | degree of damage to the plants (% damage vs untreated control), Sorghum (Sorghum; 60 g of ai./ha): 60% |
| C=CCn1c(SCCF)nn(C(=O)NS(=O)(=O)c2c(C)cccc2C(=O)OC)c1=O [Example 153] | very strong activity against weeds | 0 | – | 95 | 95 | 70 | 95 | 30 | – | – | – | – | – | – |
| CCOC(=O)c1scc(C)c1S(=O)(=O)NC(=O)n1nc(CC)n(OCC)c1=O [Example 61] | very strong activity against weeds | 0 | 95 | 95 | 100 | 95 | 95 | – | – | – | – | – | – | degree of damage to the plants (% damage vs untreated control), Sorghum (Sorghum; 125 g of ai./ha): 80% |
